Results on 20 molecules are retold here after patent US20260325533A1, “CDK INHIBITOR COMPOUNDS” (ALEKSIA THERAPEUTICS, INC., priority 2023, published 2026).

What all share (type): biochemical
One assay concerns the target CDK1/CCNB1 (Homo sapiens, UniProt P06493). In words: CDK1 homogeneous time-resolved fluorescence (HTRF) kinase assay. The settings on record: CDK1/CCNB. In outline: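 Read-out: TR-FRET (Eu anti-phospho-4E-BP1 Thr37/46 antibody, 2 nM; 665 nm or 665/615 ratio) after 60 min phosphorylation of 50 nM ULight-peptide by 0.5 nM CDK1/CCNB1 at 1 mM ATP, 23 °C. Compound preincubated 20 min with enzyme; 1% DMSO.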
Background: TR-FRET usually uses a lanthanide donor and a delayed reading to cut background.

In the next assay the target is CDK6/CCND1 (Homo sapiens, UniProt Q00534). The assay can be described thus: CDK6 homogeneous time-resolved fluorescence (HTRF) kinase assay. The following applies: CDK6/CCND. In a few lines:
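1 nM enzyme, 1 mM ATP, 50 nM ULight-4E-BP1 (Thr37/46) peptide, 1% DMSO; 20 min compound preincubation, 60 min reaction, 23 °C. EDTA stop, 2 nM Eu-anti-phospho-4E-BP1 antibody 60 min. TR-FRET 665 nm (or 665/615 ratio); IC50 from 11-point half-log titration, top 10 μM.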

The next assay has as its target CDK4/CCND3 (Homo sapiens, UniProt P11802). In words: CDK4 homogeneous time-resolved fluorescence (HTRF) kinase assay. The following applies: CDK4/CCND. In outline: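 Compounds were preincubated with 1.5 nM CDK4/CCND3 for 20 min at 23 °C in HEPES buffer (pH not given), then reacted 60 min with 1 mM ATP and 50 nM ULight-4E-BP1 (Thr37/46) peptide. EDTA stop, Eu-anti-phospho-4E-BP1 detection; 665/615 nm ratio; IC50 from 11-point half-log titrations from 10 μM.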

Another assay has as its target CDK2/CCNE1 (Homo sapiens, UniProt P24941). In words: CDK2 homogeneous time-resolved fluorescence (HTRF) kinase assay. The settings on record: CDK2/CCNE. In a few lines: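 3 nM CDK2/CCNE1 was preincubated with compound for 20 min at 23 °C in HEPES buffer (pH not stated), then reacted 60 min with 1 mM ATP and 50 nM ULight-4E-BP1 (Thr37/46) peptide. After EDTA stop, Eu-anti-phospho-4E-BP1 antibody (2 nM) was added for 60 min and TR-FRET read at 665 nm.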

The mark [1] stands for this setting: >250 nM marked x, read-out: CDK1/CCNB IC50 >250 nM.
Setting [2] is: >250 nM marked x, read-out: CDK6/CCND IC50 >250 nM.
[3] abbreviates: >250 nM marked x, read-out: CDK4/CCND IC50 >250 nM.
[4] abbreviates: 25-250 nM marked x, read-out: CDK2/CCNE IC50 25-250 nM.
Setting [5] is: 25-250 nM marked x, read-out: CDK1/CCNB IC50 25-250 nM.
The mark [6] stands for this setting: <25 nM, read-out: CDK4/CCND IC50 <25 nM.
[7] abbreviates: <25 nM, read-out: CDK2/CCNE IC50 <25 nM.
[8] abbreviates: 25-250 nM marked x, read-out: CDK6/CCND IC50 25-250 nM.
[9] abbreviates: 25-250 nM marked x, read-out: CDK4/CCND IC50 25-250 nM.

Read-outs that look alike come from different tables or passages of the source. Bounds are passed on as bounds.

Sequence of CDK6/CCND1 (Q00534 whole entry): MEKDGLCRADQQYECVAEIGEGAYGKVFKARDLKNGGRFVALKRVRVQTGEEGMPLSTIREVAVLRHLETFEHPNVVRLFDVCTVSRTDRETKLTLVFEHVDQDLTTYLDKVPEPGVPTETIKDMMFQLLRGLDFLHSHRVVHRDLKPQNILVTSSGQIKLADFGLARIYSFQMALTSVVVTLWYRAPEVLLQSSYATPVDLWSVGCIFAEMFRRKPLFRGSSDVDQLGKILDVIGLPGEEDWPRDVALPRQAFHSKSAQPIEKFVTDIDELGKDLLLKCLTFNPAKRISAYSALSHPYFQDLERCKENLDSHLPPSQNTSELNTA
Sequence of CDK6/CCND1 (P24385 whole entry partner): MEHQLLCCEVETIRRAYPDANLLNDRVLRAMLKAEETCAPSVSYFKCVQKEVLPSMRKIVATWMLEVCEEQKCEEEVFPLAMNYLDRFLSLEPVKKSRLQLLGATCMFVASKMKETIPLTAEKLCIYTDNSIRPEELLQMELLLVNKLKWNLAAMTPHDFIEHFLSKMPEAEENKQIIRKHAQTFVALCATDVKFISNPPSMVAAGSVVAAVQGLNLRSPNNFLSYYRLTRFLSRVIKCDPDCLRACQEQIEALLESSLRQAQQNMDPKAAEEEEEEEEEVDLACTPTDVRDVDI
Sequence of CDK4/CCND3 (P11802 whole entry): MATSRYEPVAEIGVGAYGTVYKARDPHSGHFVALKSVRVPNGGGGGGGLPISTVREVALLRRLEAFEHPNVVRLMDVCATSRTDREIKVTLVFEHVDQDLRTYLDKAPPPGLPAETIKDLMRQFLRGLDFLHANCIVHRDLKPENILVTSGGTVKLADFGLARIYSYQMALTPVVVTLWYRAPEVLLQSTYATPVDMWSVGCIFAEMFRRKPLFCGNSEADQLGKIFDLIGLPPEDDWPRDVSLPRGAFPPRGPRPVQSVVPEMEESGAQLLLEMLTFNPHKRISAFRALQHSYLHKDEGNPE
Sequence of CDK4/CCND3 (P30281 whole entry partner): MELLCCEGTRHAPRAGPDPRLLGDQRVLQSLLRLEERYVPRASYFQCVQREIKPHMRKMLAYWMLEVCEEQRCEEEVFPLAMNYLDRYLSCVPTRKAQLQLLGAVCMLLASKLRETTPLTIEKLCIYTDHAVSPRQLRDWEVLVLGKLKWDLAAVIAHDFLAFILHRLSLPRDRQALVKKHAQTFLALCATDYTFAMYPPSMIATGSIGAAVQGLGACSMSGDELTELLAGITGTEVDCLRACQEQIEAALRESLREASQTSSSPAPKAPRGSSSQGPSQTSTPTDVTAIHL
Sequence of CDK1/CCNB1 (P06493 whole entry): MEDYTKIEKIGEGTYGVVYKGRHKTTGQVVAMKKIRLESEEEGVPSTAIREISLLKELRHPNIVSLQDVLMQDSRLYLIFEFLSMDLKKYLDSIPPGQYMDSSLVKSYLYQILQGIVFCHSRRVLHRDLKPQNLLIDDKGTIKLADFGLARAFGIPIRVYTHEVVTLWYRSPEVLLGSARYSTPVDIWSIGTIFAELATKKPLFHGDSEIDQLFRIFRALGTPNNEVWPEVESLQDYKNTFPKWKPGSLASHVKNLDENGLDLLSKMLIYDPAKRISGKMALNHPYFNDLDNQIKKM
Sequence of CDK1/CCNB1 (P14635 whole entry partner): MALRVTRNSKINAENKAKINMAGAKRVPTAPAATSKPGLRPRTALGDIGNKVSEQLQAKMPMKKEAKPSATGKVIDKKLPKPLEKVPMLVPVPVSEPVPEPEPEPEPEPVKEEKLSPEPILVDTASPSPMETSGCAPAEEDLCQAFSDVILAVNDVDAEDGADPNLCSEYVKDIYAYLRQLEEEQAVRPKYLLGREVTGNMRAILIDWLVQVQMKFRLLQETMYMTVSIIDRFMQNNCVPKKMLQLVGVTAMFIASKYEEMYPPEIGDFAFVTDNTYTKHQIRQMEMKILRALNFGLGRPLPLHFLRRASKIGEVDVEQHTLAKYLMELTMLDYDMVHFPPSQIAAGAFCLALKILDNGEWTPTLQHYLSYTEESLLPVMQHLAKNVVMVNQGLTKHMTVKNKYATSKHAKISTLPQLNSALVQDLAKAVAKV

Take `C#Cc1nccc2cnc(Nc3ccc(S(C)(=O)=O)cc3)cc12` [Ex 124, 5-ethynyl-N-(4-(methylsulfonyl)phenyl)-2,6-naphthyridin-3-amine]: the IC50 was greater than 250 nM on CDK1/CCNB1 (setting [1]), greater than 250 nM on CDK6/CCND1 (setting [2]), greater than 250 nM on CDK4/CCND3 (setting [3]) and 25 to 250 nM on CDK2/CCNE1 (setting [4]).

Take `CS(=O)(=O)c1ccc(Nc2cc3c(C4=CCCCC4)nccc3cn2)cc1` [Ex 127, 5-(cyclohex-1-en-1-yl)-N-(4-(methylsulfonyl)phenyl)-2,6-naphthyridin-3-amine]: the IC50 on CDK1/CCNB1 (setting [5]) is 25 to 250 nM; on CDK6/CCND1 (<25 nM, read-out: CDK6/CCND IC50 <25 nM), less than 25 nM; at CDK4/CCND3 (setting [6]) it was less than 25 nM; at CDK2/CCNE1 (setting [7]) it was less than 25 nM.

As for `CS(=O)(=O)c1ccc(Nc2cc3c(C#Cc4ccc(C#N)cc4)nccc3cn2)cc1` [Ex 129, 4-((7-((4-(methylsulfonyl)phenyl)amino)-2,6-naphthyridin-1-yl)ethynyl)benzonitrile], the IC50 is greater than 250 nM on CDK1/CCNB1 (setting [1]), greater than 250 nM on CDK6/CCND1 (setting [2]), greater than 250 nM on CDK4/CCND3 (setting [3]) and 25 to 250 nM on CDK2/CCNE1 (setting [4]).

For `CS(=O)(=O)c1ccc(Nc2cc3c(C#CCCO)nccc3cn2)cc1` [Ex 130, 4-(7-((4-(methylsulfonyl)phenyl)amino)-2,6-naphthyridin-1-yl)but-3-yn-1-ol], the IC50 at CDK1/CCNB1 (setting [5]) is 25 to 250 nM; on CDK6/CCND1 (setting [8]), 25 to 250 nM; on CDK4/CCND3 (setting [9]), 25 to 250 nM; at CDK2/CCNE1 (setting [7]) it was less than 25 nM.

Regarding `C=CS(=O)(=O)c1ccc(Nc2cc3c(-c4ccc(C#N)cc4)nccc3cn2)cc1` [Ex 131, 4-(7-((4-(vinylsulfonyl)phenyl)amino)-2,6-naphthyridin-1-yl)benzonitrile], the IC50 on CDK1/CCNB1 (setting [1]) is greater than 250 nM; on CDK6/CCND1 (setting [2]), greater than 250 nM; at CDK4/CCND3 (setting [3]), greater than 250 nM; on CDK2/CCNE1 (setting [4]) it was 25 to 250 nM.

On to `C=CS(=O)(=O)c1ccc(Nc2cc3c(-c4cccc(C#N)c4)nccc3cn2)cc1` [Ex 136, 3-(7-((4-(vinylsulfonyl)phenyl)amino)-2,6-naphthyridin-1-yl)benzonitrile], for which the IC50 was greater than 250 nM at CDK1/CCNB1 (setting [1]), greater than 250 nM at CDK6/CCND1 (setting [2]), greater than 250 nM at CDK4/CCND3 (setting [3]) and 25 to 250 nM on CDK2/CCNE1 (setting [4]).

For the molecule `C=CS(=O)(=O)c1ccc(Nc2cc3c(-c4cccc(COC)c4)nccc3cn2)cc1` [Ex 137, 5-(3-(methoxymethyl)phenyl)-N-(4-(vinylsulfonyl)phenyl)-2,6-naphthyridin-3-amine], the IC50 at CDK1/CCNB1 (setting [1]) was greater than 250 nM; at CDK6/CCND1 (setting [2]) it was greater than 250 nM; on CDK4/CCND3 (setting [3]) it was greater than 250 nM; on CDK2/CCNE1 (setting [4]), 25 to 250 nM.

`CS(=O)(=O)c1ccc(Nc2cc3c(C#Cc4ccncc4)nccc3cn2)cc1` [Ex 138, N-(4-(methylsulfonyl)phenyl)-5-(pyridin-4-ylethynyl)-2,6-naphthyridin-3-amine]: the IC50 was greater than 250 nM on CDK1/CCNB1 (setting [1]), 25 to 250 nM at CDK6/CCND1 (setting [8]), 25 to 250 nM on CDK4/CCND3 (setting [9]) and less than 25 nM on CDK2/CCNE1 (setting [7]).

Regarding `CS(=O)(=O)c1ccc(Nc2cc3c(C4=NCCS4)nccc3cn2)cc1` [Ex 139, 5-(4,5-dihydrothiazol-2-yl)-N-(4-(methylsulfonyl)phenyl)-2,6-naphthyridin-3-amine], the IC50 is 25 to 250 nM on CDK1/CCNB1 (setting [5]), 25 to 250 nM on CDK6/CCND1 (setting [8]), 25 to 250 nM on CDK4/CCND3 (setting [9]) and less than 25 nM on CDK2/CCNE1 (setting [7]).

Consider `C=CS(=O)(=O)c1ccc(Nc2cc3c(-c4ccccc4OC(F)(F)F)nccc3cn2)cc1` [Ex 141, 5-(2-(trifluoromethoxy)phenyl)-N-(4-(vinylsulfonyl)phenyl)-2,6-naphthyridin-3-amine], for which the IC50 on CDK1/CCNB1 (setting [1]) is greater than 250 nM; at CDK6/CCND1 (setting [2]), greater than 250 nM; at CDK4/CCND3 (setting [3]), greater than 250 nM; at CDK2/CCNE1 (setting [4]) it was 25 to 250 nM.

For the molecule `C=CS(=O)(=O)c1ccc(Nc2cc3c(-c4ccc5ocnc5c4)nccc3cn2)cc1` [Ex 145, 5-(benzo[d]oxazol-5-yl)-N-(4-(vinylsulfonyl)phenyl)-2,6-naphthyridin-3-amine], the IC50 is greater than 250 nM at CDK1/CCNB1 (setting [1]), greater than 250 nM on CDK6/CCND1 (setting [2]), greater than 250 nM at CDK4/CCND3 (setting [3]) and 25 to 250 nM at CDK2/CCNE1 (setting [4]).

As for `CS(=O)(=O)c1ccc(Nc2cc3c(C4=CCNCC4)nccc3cn2)cc1` [Ex 146, N-(4-(methylsulfonyl)phenyl)-5-(1,2,3,6-tetrahydropyridin-4-yl)-2,6-naphthyridin-3-amine], the IC50 at CDK1/CCNB1 (CDK1/CCNB IC50 >250 nM, >250 nM marked x) is greater than 250 nM; against CDK6/CCND1 (CDK6/CCND IC50 25-250 nM, 25-250 nM marked x), 25 to 250 nM; on CDK4/CCND3 (CDK4/CCND IC50 25-250 nM, 25-250 nM marked x) it was 25 to 250 nM; at CDK2/CCNE1 (CDK2/CCNE IC50 25-250 nM, 25-250 nM marked x) it was 25 to 250 nM.

With `Cc1c(-c2nccc3cnc(Nc4ccc(S(C)(=O)=O)cc4)cc23)ccc2[nH]ncc12` [Ex 148, 5-(4-methyl-1H-indazol-5-yl)-N-(4-(methylsulfonyl)phenyl)-2,6-naphthyridin-3-amine], the IC50 on CDK1/CCNB1 (setting [1]) is greater than 250 nM; on CDK6/CCND1 (setting [8]), 25 to 250 nM; at CDK4/CCND3 (setting [9]), 25 to 250 nM; at CDK2/CCNE1 (setting [7]), less than 25 nM.

`C=CS(=O)(=O)c1ccc(Nc2cc3c(C#CC)nccc3cn2)cc1` [Ex 149, 5-(prop-1-yn-1-yl)-N-(4-(vinylsulfonyl)phenyl)-2,6-naphthyridin-3-amine]: the IC50 on CDK1/CCNB1 (setting [1]) was greater than 250 nM; at CDK6/CCND1 (setting [2]), greater than 250 nM; at CDK4/CCND3 (setting [3]) it was greater than 250 nM; at CDK2/CCNE1 (setting [7]) it was less than 25 nM.

In the case of `CS(=O)(=O)c1ccc(Nc2cc3c(C#C[C@H]4CC[C@H](O)CC4)nccc3cn2)cc1` [Ex 150, (1r,4r)-4-((7-((4-(methylsulfonyl)phenyl)amino)-2,6-naphthyridin-1-yl)ethynyl)cyclohexan-1-ol], the IC50 is greater than 250 nM on CDK1/CCNB1 (setting [1]), 25 to 250 nM on CDK6/CCND1 (setting [8]), less than 25 nM at CDK4/CCND3 (setting [6]) and less than 25 nM at CDK2/CCNE1 (setting [7]).

Regarding `C=CS(=O)(=O)c1ccc(Nc2cc3c(C#Cc4ccc(C#N)cc4)nccc3cn2)cc1` [Ex 156, 4-((7-((4-(vinylsulfonyl)phenyl)amino)-2,6-naphthyridin-1-yl)ethynyl)benzonitrile], the IC50 on CDK1/CCNB1 (setting [1]) was greater than 250 nM; on CDK6/CCND1 (setting [2]) it was greater than 250 nM; on CDK4/CCND3 (setting [3]) it was greater than 250 nM; on CDK2/CCNE1 (setting [4]), 25 to 250 nM.

For `Cc1c(-c2nccc3cnc(Nc4ccc(S(C)(=O)=O)cc4)cc23)ccc2c1cnn2C` [Ex 158, 5-(1,4-dimethyl-1H-indazol-5-yl)-N-(4-(methylsulfonyl)phenyl)-2,6-naphthyridin-3-amine], the IC50 on CDK1/CCNB1 (setting [1]) was greater than 250 nM; at CDK6/CCND1 (setting [2]), greater than 250 nM; at CDK4/CCND3 (setting [9]), 25 to 250 nM; at CDK2/CCNE1 (setting [7]) it was less than 25 nM.

As to `C=CS(=O)(=O)c1ccc(Nc2cc3c(-c4ccc5cc[nH]c5c4)nccc3cn2)cc1` [Ex 162, 5-(1H-indol-6-yl)-N-(4-(vinylsulfonyl)phenyl)-2,6-naphthyridin-3-amine], the IC50 is greater than 250 nM on CDK1/CCNB1 (setting [1]), greater than 250 nM at CDK6/CCND1 (setting [2]), greater than 250 nM at CDK4/CCND3 (setting [3]) and less than 25 nM at CDK2/CCNE1 (setting [7]).

`Cc1c(-c2nccc3cnc(Nc4ccc(S(C)(=O)=O)cc4)cc23)ccc2nn(C)cc12` [Ex 166, 5-(2,4-dimethyl-2H-indazol-5-yl)-N-(4-(methylsulfonyl)phenyl)-2,6-naphthyridin-3-amine]: the IC50 at CDK1/CCNB1 (setting [1]) was greater than 250 nM; at CDK6/CCND1 (setting [8]) it was 25 to 250 nM; on CDK4/CCND3 (setting [9]), 25 to 250 nM; on CDK2/CCNE1 (setting [7]), less than 25 nM.

In the case of `Cc1nc(-c2nccc3cnc(Nc4ccc(S(C)(=O)=O)cc4)cc23)no1` [Ex 167, 5-(5-methyl-1,2,4-oxadiazol-3-yl)-N-(4-(methylsulfonyl)phenyl)-2,6-naphthyridin-3-amine], the IC50 was greater than 250 nM at CDK1/CCNB1 (setting [1]), greater than 250 nM at CDK6/CCND1 (setting [2]), greater than 250 nM at CDK4/CCND3 (setting [3]) and 25 to 250 nM at CDK2/CCNE1 (setting [4]).
